In PubChem BioAssay AID652273 (Sanford-Burnham Center for Chemical Genomics, 2013):
The source made the active and inactive calls.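 Rule for the calls: active = compounds lowering heat-shock reporter fluorescence with mean IC50 at or below 15 µM, flagged as SKN-1 screen artifacts; inactive = the rest.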

What follows are compounds tested on C. elegans VP596 hsp-16.2 GFP/RFP after heat shock (assay: inhibitors of heat-induced hsp-16.2 GFP signal – whole organism, C. elegans VP596, GFP/RFP ratio, round 2, counter-screen for SKN-1 inhibitor project, SAR follow-up (AID 652273)).

| Structure (SMILES) | IC50 |
| --- | --- |
| COc1cc(CNC2CCCC2)cc(Cl)c1OCc1ccc(Cl)cc1 | > 64 µM (inactive) |
| CCOc1cc(CN2CCOCC2)cc(Cl)c1OCc1ccc(F)cc1 | > 64 µM (inactive) |
| C=CCNCc1cc(Cl)c(OCc2ccc(Cl)cc2)c(OCC)c1 | > 64 µM (inactive) |
| CCOc1cc(CNC2CCCC2)cc(Cl)c1OCc1ccc(Br)cc1 | > 64 µM (inactive) |
| COc1cc(CNC2CCCC2)cc(F)c1OCc1ccc(Cl)cc1 | > 64 µM (inactive) |
| CCOc1cc(CNCC2CC2)cc(Cl)c1OCc1ccc(Cl)cc1 | > 64 µM (inactive) |
| CCOc1cc(CN2CCCC2)cc(Cl)c1OCc1ccc(F)cc1 | > 64 µM (inactive) |
| CCOc1cc(CNC2CCCC2)cc(Cl)c1OCc1ccc(C#N)cc1 | > 64 µM (inactive) |
| CCOc1cc(CNC2CCCC2)cc(Cl)c1OCc1ccc(Cl)cc1F | > 64 µM (inactive) |
| CCOc1cc(CNC2CC2)cc(Cl)c1OCc1ccc(C#N)cc1 | > 64 µM (inactive) |
| C#CCNCc1cc(Cl)c(OCc2ccc(Cl)cc2)c(OCC)c1 | > 64 µM (inactive) |
| CCOc1cc(CN(C(C)=O)C2CCCC2)cc(Cl)c1OCc1ccc(Cl)cc1 | > 64 µM (inactive) |
| CCOc1cc(CNC2CC2)cc(Cl)c1OCc1ccc(Cl)cc1F | > 64 µM (inactive) |
| CCOc1cc(CN2CCCCC2)cc(Cl)c1OCc1ccc(Cl)cc1 | > 64 µM (inactive) |
| CCOc1cc(CNC)cc(Cl)c1OCc1ccc(Cl)cc1 | > 64 µM (inactive) |
| COc1cc(CNC2CCCC2)cc(Br)c1OCc1ccc(Cl)cc1 | > 64 µM (inactive) |
| Cc1cc(CNC2CCCC2)cc(C)c1OCc1ccc(Cl)cc1 | > 64 µM (inactive) |
| CCOc1cc(CN(C)C2CCCC2)cc(Cl)c1OCc1ccc(Cl)cc1 | > 64 µM (inactive) |
| CCOc1cc(CN2CCCC2)cc(Cl)c1OCc1ccc(Cl)cc1 | > 64 µM (inactive) |
| CCOc1cc(CN2CCOCC2)cc(Cl)c1OCc1ccc(Cl)cc1 | > 64 µM (inactive) |
| CCOc1cc(CN2CCN(C)CC2)cc(Cl)c1OCc1ccc(F)cc1 | > 64 µM (inactive) |
| CCOc1cc(CNC2CC2)cc(Cl)c1OCc1ccc(Cl)cc1 | > 64 µM (inactive) |
| Clc1ccc(COc2c(Cl)cc(CNC3CCCC3)cc2Cl)cc1 | > 64 µM (inactive) |
| CCOc1cc(CN2CCCCC2)cc(Cl)c1OCc1ccc(F)cc1 | > 64 µM (inactive) |
| CCOc1cc(CN2CCN(C)CC2)cc(Cl)c1OCc1ccc(Cl)cc1 | > 64 µM (inactive) |
| CCCNCc1cc(Cl)c(OCc2ccc(Cl)cc2)c(OCC)c1 | > 64 µM (inactive) |
| CCOc1cc(CNC2CC2)cc(Cl)c1OCc1ccc(Br)cc1 | > 64 µM (inactive) |
